Laboratory results reported in patent US5348941A, “Stabilizers for fibroblast growth factors” (Merck & Co., Inc., priority 1992, dated 1994).
Where two headings read alike, the source gives them in different places.

Assays:
acidic FGF (aFGF) = acidic FGF (aFGF) (Homo sapiens, UniProt P05230); test: biochemical; conditions: for Approx. Molar Ratio (ligand to aFGF at 50% inhibition of aggregation): Table 1; for stabilization of aFGF against heat-induced aggregation: 0.5X and 10X ligand, FIGS. 6-8
Text: Stabilization of aFGF can be determined by several independent methods including turbidity measurements, spectroscopic techniques, maintenance of protein mass, mitogenic activity and copper catalyzed oxidation. Since acidic fibroblast growth factor is unstable at physiological temperatures (undergoing large structural changes, including aggregation, which results in a loss of mitogenic and wound healing activity), human aFGF stability can be monitored by evaluating the turbidity of the pharmaceutical composition by following the kinetics of temperature induced aggregation of unfolded protein.
The kinetics of protein aggregation (stabilization) are monitored by the degree of light scattering at about OD350 nm using a Perkin Elmer Lambda 6 UV-visible spectrophotometer equipped with a six-cuvette holder. Temperature is controlled by circulating a water/ethylene glycol solution through the cell holder. About 0.9 ml of a PBS solution (6 mM sodium phosphate, 120 mM NaCl, pH 7.2) was placed into a cuvette and incubated at the appropriate temperature within the spectrophotometer. Once equilibrated, 100 μl of a 1 mg/ml aFGF solution containing the appropriate amount of ligand (stabilizer) is added to the cuvette and mixed manually by inversion. The change in optical density at 350 nm over time is continuously monitored. A dead time of 30s was present due to the mixing of the six samples in each experiment.
To examine the interactions between aFGF and heparin, a spectrophotometric turbidity assay was developed. This technique monitors the structural stability of aFGF by following the kinetics of temperature induced aggregation of unfolded protein by measurement of the degree of light scattering (turbidity) at 350 nm. The kinetics of protein aggregation were monitored by the degree of light scattering at 350 nm using a Perkin Elmer Lambda 6 UV-visible spectrophotometer equipped with a six-cuvette holder. Temperature was controlled by circulating a water/ethylene glycol solution through the cell holder. A PBS solution, 0.9 ml, (6 mM phosphate, 120 mM NaCl pH 7.2) was placed into a cuvette and incubated at the appropriate temperature within the spectrophotometer. Once equilibrated, 100 μl of a 1 mg/ml aFGF solution containing the appropriate amount of ligand was added to the cuvette and mixed manually by inversion. The change in optical density at 350 nm over time was continuously monitored. A dead time of 30s was present due to the mixing of the six samples in each experiment.
Samples contained 100 μg/ml aFGF in a PBS buffer at pH 7.2 with the indicated ratio of heparin to aFGF (wt:wt).
Samples contained 100 μg/ml protein in a PBS buffer, pH 7.2 with (a) no heparin, (b) 1.5 μg/ml, (c) 3 μg/ml, (d) 5 μg/ml, (e) 10 μg/ml and (f) 50 μg/ml heparin. Only representative data points are shown for clarity. […] Using the initial linear portion of the slope of turbidity vs. time plots as a measure of the rate of aggregation, the effect of polyanion concentration can be quantitatively characterized. The Y-axis represents the maximum rate of turbidity formation (ΔOD350 nm/min) normalized to sample (a) containing no heparin. The curve is drawn through data points for clarity only. The IC50 is the concentration of ligand at which the rate of aggregation is 50% of the control sample.

aFGF = biological target: T1, aFGF (Homo sapiens, UniProt P05230); test: Thermal denaturation (Tm) of aFGF by circular dichroism; type: biochemical; conditions: for Tm of aFGF, circular dichroism: 3X ligand by weight
T1 construct: The recombinant derived, 140 amino add form is the preferred form of aFGF; N-terminal methionine (MetHaFGF); made in house; host or cells: microbial cells (preferred embodiment)
Procedure: Circular Dichroism (CD) spectra are measured with an AVIV 62 DS spectropolarimeter. Samples of aFGF at about 100 μg/ml in a PBS buffer (6 mM sodium phosphate, 120 mM NaCl, pH 7.2) containing various ligands are placed into 1 mm pathlength cells and the cell temperature is controlled by circulating a water/ethylene glycol mixture through the cell holder. Thermal denaturation is carded out under computer control by increasing the temperature of the water bath in 2° C. increments, followed by a two-minute equilibration period at each temperature to allow the sample to reach thermal equilibrium. Reproducibility of the midpoint of these temperature melting curves (Tm) is ±2° C.
The maximum Tm values induced by 12 different ligands as determined by circular dichroism measurements at 228 nm are summarized in the first column of Table II. All of these ligands stabilize aFGF by 15°-25° C. in a manner similar to that originally observed with heparin. […] Furthermore, sulfate unions are found near analogous residues in the crystal structure of basic FGF, Eriksson et al., Proc. Natl. Acad. Sd. USA 88:3441-3445 (1991); Zhang et al., Proc. Natl. Acad. Sci. USA 88:3446-3450 (1991). Consequently, it seemed important to examine the ability of these ligands to stabilize aFGF during thermal denaturation as monitored by both fluorescence and circular dichroism. The Tm value of aFGF increased from 27° C. to 43° C. (fluorescence)and 45° C. to 51° C. (CD) when a 100 molar excess (3X by weight) of (IrCl6)^-3 was present. Similarly, sulfate union (120 mM) produced a species that was even more dramatically stabilized, melting at 57° C. (CD).
^(a) Thermal melting temperatures were measured by circular dichroism
Samples contained […] aFGF in PBS buffer pH 7.2 with excess ligand
(1-3× by weight except for 120 mM sodium sulfate and 10 mM

[1] = 40° C., 100 μg/ml aFGF, PBS pH 7.2, read-out: IC50: concentration of ligand at which the rate of heat-induced aggregation of aFGF is 50% of the sample without ligand (converted)
[2] = 40° C., 100 μg/ml aFGF, PBS pH 7.2

acidic FGF (aFGF), sequence (P05230 16-155 limits assumed): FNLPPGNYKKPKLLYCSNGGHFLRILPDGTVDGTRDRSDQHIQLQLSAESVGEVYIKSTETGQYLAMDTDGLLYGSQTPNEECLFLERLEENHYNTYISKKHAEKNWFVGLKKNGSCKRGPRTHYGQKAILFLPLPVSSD
T1 sequence (P05230 16-155 limits assumed): as above

| Compound | IC50 (acidic FGF (aFGF); [1]) | Approx. Molar Ratio (ligand to aFGF at 50% inhibition of aggregation) (acidic FGF (aFGF); 40° C.) | stabilization of aFGF against heat-induced aggregation (acidic FGF (aFGF); 40° C.) | other results |
| --- | --- | --- | --- | --- |
| Nc1ncnc2c1ncn2[C@@H]1O[C@H](COP(=O)(O)OP(=O)(O)O)[C@@H](O)[C@H]1O [ADP] | 200 µM | 33 | – | – |
| Nc1ncnc2c1ncn2[C@@H]1O[C@H](COP(=O)(O)OP(=O)(O)OP(=O)(O)OP(=O)(O)O)[C@@H](O)[C@H]1O [AT4P] | 10 µM | 1.6 | – | – |
| Nc1ncnc2c1ncn2[C@@H]1O[C@H](COP(=O)(O)OP(=O)(O)OP(=O)(O)O)[C@@H](O)[C@H]1O [ATP] | – | 5 | significantly enhance the thermal stability of aFGF | IC50 (acidic FGF (aFGF)): 30 µM |
| N.N.O=S(=O)(O)O [Ammonium sulfate, ammonium sulfate] | – | 80 | – | number of ligand molecules per aFGF (molar ratio) required for stabilization (acidic FGF (aFGF); 40° C.): about 80; IC50: concentration of ligand at which the rate of heat-induced aggregation of aFGF is 50% of the sample without ligand (acidic FGF (aFGF); [2]): 70 µg/mL |
| Nc1ncnc2c1ncn2[C@@H]1O[C@H](COP(=O)(O)OP(=O)(O)OP(=O)(O)OC[C@H]2O[C@@H](n3cnc4c(N)ncnc43)[C@H](O)[C@@H]2O)[C@@H](O)[C@H]1O [Ap3A] | 250 µM | 42 | – | – |
| Nc1ncnc2c1ncn2[C@@H]1O[C@H](COP(=O)(O)OP(=O)(O)OP(=O)(O)OP(=O)(O)OC[C@H]2O[C@@H](n3cnc4c(N)ncnc43)[C@H](O)[C@@H]2O)[C@@H](O)[C@H]1O [Ap4A] | 30 µM | 5 | – | – |
| Nc1ncnc2c1ncn2[C@@H]1O[C@H](COP(=O)(O)OP(=O)(O)OP(=O)(O)OP(=O)(O)OP(=O)(O)OC[C@H]2O[C@@H](n3cnc4c(N)ncnc43)[C@H](O)[C@@H]2O)[C@@H](O)[C@H]1O [Ap5A] | 10 µM | 1.6 | – | – |
| Nc1ncnc2c1ncn2[C@@H]1O[C@H](COP(=O)(O)OP(=O)(O)OP(=O)(O)OP(=O)(O)OP(=O)(O)OP(=O)(O)OC[C@H]2O[C@@H](n3cnc4c(N)ncnc43)[C@H](O)[C@@H]2O)[C@@H](O)[C@H]1O [Ap6A] | 3 µM | 0.5 | – | – |
| O=C(O)[C@H](O)[C@@H](O)[C@H](O[C@@H]1O[C@H](CO)[C@H](O)[C@H](O)[C@H]1O)[C@H](O)CO [Lactobionic acid] | 502 µM | 80 | – | number of ligand molecules per aFGF (molar ratio) required for stabilization (acidic FGF (aFGF); 40° C.): about 80 |
| Nc1ncnc2nc[nH]c12.O=S(=O)(O)O [adenine sulfate] | – | – | actually alestabilize the growth factor | – |
| OC[C@H]1O[C@@H]2O[C@H]3[C@H](O)[C@@H](O)[C@@H](O[C@H]4[C@H](O)[C@@H](O)[C@@H](O[C@H]5[C@H](O)[C@@H](O)[C@@H](O[C@H]6[C@H](O)[C@@H](O)[C@@H](O[C@H]7[C@H](O)[C@@H](O)[C@@H](O[C@H]8[C@H](O)[C@@H](O)[C@@H](O[C@H]1[C@H](O)[C@H]2O)O[C@@H]8CO)O[C@@H]7CO)O[C@@H]6CO)O[C@@H]5CO)O[C@@H]4CO)O[C@@H]3CO [β-cyclodextrin (sulfur content zero), β-cyclodextrin] | – | – | – | Tm of aFGF, circular dichroism (aFGF): 46 °C |
| Chondroitin Sulfate B | – | – | – | IC50: concentration of ligand at which the rate of heat-induced aggregation of aFGF is 50% of the sample without ligand (acidic FGF (aFGF); [2]): 50 µg/mL; effect on rate and extent of aggregation of aFGF (acidic FGF (aFGF); 40° C., 0.5X ligand by weight): only a slight effect; effect on rate and extent of aggregation of aFGF (acidic FGF (aFGF); 40° C., 10X ligand by weight): significantly slows down the rate and extent of aggregation |
| Fucoidin | – | – | dramatically stabilize aFGF from heat-induced aggregation | IC50: concentration of ligand at which the rate of heat-induced aggregation of aFGF is 50% of the sample without ligand (acidic FGF (aFGF); [2]): 6 µg/mL |
| chondroitin sulfate A | – | – | – | effect on rate and extent of aggregation of aFGF (acidic FGF (aFGF); 40° C., 0.5X ligand by weight): only a slight effect; effect on rate and extent of aggregation of aFGF (acidic FGF (aFGF); 40° C., 10X ligand by weight): significantly slows down the rate and extent of aggregation |
| chondroitin sulfate C | – | – | – | effect on rate and extent of aggregation of aFGF (acidic FGF (aFGF); 40° C., 0.5X ligand by weight): only a slight effect; effect on rate and extent of aggregation of aFGF (acidic FGF (aFGF); 40° C., 10X ligand by weight): significantly slows down the rate and extent of aggregation |
| keratan sulfate | – | – | much less effective | – |
| poly-glutamic acid | – | – | significantly enhance the thermal stability of aFGF | – |
| polyaspartic acid [poly-Asp] | – | – | significantly enhance the thermal stability of aFGF | – |
| polyvinyl sulfate | – | – | much less effective | – |
| propyl-hydroxy-β- cyclodextrin | – | – | – | stabilization of aFGF, circular dichroism (aFGF; 3X by weight): did not stabilize addic FGF; Tm of aFGF, circular dichroism (aFGF): 47 °C |
| sulodexide [reference compound] | – | – | dramatically stabilize aFGF from heat-induced aggregation | – |
